Data set [1] in a line: Cytotoxicity against human MAGI cells. The format is cell-based. The settings on record: read-out: TC50 (the source's name).
Data set [2] has as its system Human immunodeficiency virus 1. Put plainly: Antiviral activity against HIV1 3B assessed as inhibition of viral attachment to human MAGI cells. The following applies: Human immunodeficiency virus 1, 3B. The class given is functional, organism-based.
Data set [3] is described as follows: Cytotoxicity against human Chem1 cells. The following applies: read-out: TC50 (the source's name). The class given is cell-based.
The target of data set [4] is T1, C-X-C chemokine receptor type 4 (Homo sapiens, UniProt P61073). Put plainly: Antagonist activity at CXCR4 in human Chem-1 cells assessed as inhibition of CXCL12-induced calcium flux. The class given is functional, cell-based.
Data set [5] has as its target T2, hERG (KCNH2) (Homo sapiens, UniProt Q12809). The data set can be described thus: Displacement of [3H]-dofetilide from human ERG in HEK293 cells at 1 uM. The format is cell-based. The settings on record: HEK293 cells that express hERG, probe [3H]-dofetilide. (In general: In a radioligand displacement assay an active substance lowers the binding of a labelled ligand.)

The next data set concerns the target CYP2C19 (Homo sapiens, UniProt P33261). The data set can be described thus: Inhibition of human CYP2C19 at 1 uM. The format is ADME.
For a further data set, the target named is CYP3A4 (Homo sapiens, UniProt P08684). Put plainly: Inhibition of human CYP3A4 at 1 uM.
Data set [6] deals with T2, hERG (KCNH2). Put plainly: Displacement of [3H]-dofetilide from human ERG in HEK293 cells at 10 uM. The settings on record: HEK293 cells that express hERG, probe [3H]-dofetilide. The class given is cell-based.
For a further data set, the target named is CYP2D6 (Homo sapiens, UniProt P10635). Put plainly: Inhibition of human CYP2D6 at 1 uM.
For data set [7], the target named is T1, C-X-C chemokine receptor type 4.
Description: Displacement of [125I]-SDF-1 from CXCR4 (unknown origin)
Data set [8] concerns Human immunodeficiency virus 1. Put plainly: Antiviral activity against HIV1 3B infected in PBMC. The format is functional, organism-based. The settings on record: Human immunodeficiency virus 1, 3B.
Data set [9] is described as follows: Selectivity ratio of IC50 for CXCR4 in human Chem-1 cells to IC50 for HIV1 3B assessed as inhibition of viral attachment to human MAGI cells. The format is cell-based.

Bounds are passed on as bounds.

Sequence of CYP2C19 (P33261 whole entry): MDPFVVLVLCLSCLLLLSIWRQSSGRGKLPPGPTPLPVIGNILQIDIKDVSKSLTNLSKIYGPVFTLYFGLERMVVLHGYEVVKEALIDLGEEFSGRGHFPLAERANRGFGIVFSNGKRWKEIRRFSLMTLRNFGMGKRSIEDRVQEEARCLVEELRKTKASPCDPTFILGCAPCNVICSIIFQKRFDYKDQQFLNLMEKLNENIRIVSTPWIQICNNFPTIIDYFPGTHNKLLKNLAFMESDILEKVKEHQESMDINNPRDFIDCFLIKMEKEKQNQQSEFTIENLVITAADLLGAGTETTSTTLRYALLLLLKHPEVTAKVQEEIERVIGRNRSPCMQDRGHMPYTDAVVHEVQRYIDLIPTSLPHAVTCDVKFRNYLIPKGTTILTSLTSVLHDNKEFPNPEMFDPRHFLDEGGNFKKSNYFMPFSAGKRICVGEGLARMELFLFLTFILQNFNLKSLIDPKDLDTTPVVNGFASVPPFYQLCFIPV
T1 sequence (P61073 whole entry): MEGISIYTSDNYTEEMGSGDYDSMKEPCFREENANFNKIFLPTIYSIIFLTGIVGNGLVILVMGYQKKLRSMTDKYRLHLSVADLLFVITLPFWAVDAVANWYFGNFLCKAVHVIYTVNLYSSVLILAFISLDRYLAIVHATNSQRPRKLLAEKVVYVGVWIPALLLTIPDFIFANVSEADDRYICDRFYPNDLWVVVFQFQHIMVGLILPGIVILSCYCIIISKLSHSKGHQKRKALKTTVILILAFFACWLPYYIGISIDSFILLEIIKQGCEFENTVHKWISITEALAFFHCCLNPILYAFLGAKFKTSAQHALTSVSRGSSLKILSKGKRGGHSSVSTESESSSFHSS
Sequence of CYP2D6 (P10635 whole entry): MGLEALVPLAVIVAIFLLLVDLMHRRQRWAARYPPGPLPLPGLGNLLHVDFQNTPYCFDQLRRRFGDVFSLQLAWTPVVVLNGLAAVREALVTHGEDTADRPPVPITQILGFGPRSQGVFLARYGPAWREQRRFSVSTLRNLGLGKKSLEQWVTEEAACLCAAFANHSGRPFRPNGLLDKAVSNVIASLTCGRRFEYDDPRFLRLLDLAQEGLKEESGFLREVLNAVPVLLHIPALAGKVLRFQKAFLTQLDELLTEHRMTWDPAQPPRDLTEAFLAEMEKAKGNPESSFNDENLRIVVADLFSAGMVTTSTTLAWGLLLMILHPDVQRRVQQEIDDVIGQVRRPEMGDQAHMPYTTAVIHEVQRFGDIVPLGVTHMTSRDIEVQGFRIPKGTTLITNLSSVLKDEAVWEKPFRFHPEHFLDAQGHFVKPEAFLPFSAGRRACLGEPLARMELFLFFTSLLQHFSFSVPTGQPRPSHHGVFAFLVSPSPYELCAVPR
T2 sequence (Q12809 whole entry): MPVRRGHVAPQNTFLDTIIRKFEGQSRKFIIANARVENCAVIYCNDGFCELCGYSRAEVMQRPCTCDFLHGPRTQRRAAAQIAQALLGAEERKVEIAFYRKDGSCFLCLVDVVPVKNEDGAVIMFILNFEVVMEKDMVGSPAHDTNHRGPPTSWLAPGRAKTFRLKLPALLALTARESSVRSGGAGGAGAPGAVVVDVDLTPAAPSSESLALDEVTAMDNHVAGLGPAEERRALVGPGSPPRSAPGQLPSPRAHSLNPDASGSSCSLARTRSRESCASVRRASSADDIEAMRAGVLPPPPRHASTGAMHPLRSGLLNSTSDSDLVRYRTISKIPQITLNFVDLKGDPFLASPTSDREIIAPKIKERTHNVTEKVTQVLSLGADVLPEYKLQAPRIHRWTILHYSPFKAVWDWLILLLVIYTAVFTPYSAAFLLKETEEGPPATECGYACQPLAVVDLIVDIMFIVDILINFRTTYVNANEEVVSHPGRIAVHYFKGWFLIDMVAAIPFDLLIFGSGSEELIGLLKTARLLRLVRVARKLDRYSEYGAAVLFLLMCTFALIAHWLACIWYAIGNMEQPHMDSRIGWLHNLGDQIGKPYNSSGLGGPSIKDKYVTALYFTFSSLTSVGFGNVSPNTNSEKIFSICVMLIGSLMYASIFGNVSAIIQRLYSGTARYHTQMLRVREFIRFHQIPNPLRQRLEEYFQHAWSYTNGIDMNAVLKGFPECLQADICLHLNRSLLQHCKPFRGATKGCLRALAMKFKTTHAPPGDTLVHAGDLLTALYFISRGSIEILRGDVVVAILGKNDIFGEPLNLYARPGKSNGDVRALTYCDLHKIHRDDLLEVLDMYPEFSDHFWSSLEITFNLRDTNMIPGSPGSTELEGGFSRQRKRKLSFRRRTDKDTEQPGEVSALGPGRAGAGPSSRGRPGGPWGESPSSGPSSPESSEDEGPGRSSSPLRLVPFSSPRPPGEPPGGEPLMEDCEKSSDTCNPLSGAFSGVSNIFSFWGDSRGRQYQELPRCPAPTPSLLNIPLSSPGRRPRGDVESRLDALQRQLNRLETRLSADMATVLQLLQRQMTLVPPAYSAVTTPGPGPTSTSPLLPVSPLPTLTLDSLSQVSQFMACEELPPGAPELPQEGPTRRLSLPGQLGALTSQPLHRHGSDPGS
Sequence of CYP3A4 (P08684 whole entry): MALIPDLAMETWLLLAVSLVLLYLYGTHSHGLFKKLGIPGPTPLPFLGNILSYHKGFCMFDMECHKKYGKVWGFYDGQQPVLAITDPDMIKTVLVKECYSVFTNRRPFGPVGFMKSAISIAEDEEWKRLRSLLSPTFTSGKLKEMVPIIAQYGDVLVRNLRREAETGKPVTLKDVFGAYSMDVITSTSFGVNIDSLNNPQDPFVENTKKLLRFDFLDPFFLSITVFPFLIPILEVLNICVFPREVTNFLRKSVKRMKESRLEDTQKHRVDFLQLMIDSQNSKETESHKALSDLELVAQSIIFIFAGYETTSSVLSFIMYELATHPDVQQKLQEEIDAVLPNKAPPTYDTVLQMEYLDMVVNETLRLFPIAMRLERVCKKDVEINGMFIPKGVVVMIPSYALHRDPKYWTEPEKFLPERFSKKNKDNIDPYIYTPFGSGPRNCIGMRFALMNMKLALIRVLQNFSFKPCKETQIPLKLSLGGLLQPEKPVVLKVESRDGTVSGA

Regarding `NCCCCN(C[C@H]1CNCCN1C(=O)c1ccccc1)[C@H]1CCCc2cccnc21`, the CC50 in data set [1] and in [3] was over 10 µM each time. Moreover, in [2], the IC50 – broadly, the concentration at which inhibition is half-maximal – is over 100000 nM.
For the compound `NCCCCN(C[C@@H]1CNCCN1C(=O)c1ccccc1)[C@H]1CCCc2cccnc21`, the CC50 in data set [1] and in [3] was over 10 µM each time. In addition, the IC50 in data set [2] was over 100000 nM.
For `NCCCCN(C[C@H]1CN(S(=O)(=O)c2ccc3ccccc3c2)CCN1)[C@H]1CCCc2cccnc21`, the CC50 in data set [1] and in data set [3] was over 10 µM in each case. The IC50 in data set [2] amounted to 4600 nM; in [4] it was 71 nM.
In the case of `NCCCCN(C[C@H]1CNCCN1)[C@H]1CCCc2cccnc21`, the CC50 in data set [1] and in [3] was over 10 µM throughout. The IC50 stood at 310 nM in data set [2] and 255 nM in data set [4].
As to `NCCCCN(CC1CN(C(=O)c2ccco2)CCN1)[C@H]1CCCc2cccnc21` (mixture of isomers), the CC50 in data set [1] and in [3] was over 10 µM throughout. Also, in data set [2], the concentration for half-maximal inhibition (IC50) was 210 nM.
With `NCCCCN(C[C@@H]1CN(S(=O)(=O)c2ccccc2)CCN1)[C@H]1CCCc2cccnc21`, the inhibition – broadly, the relative decrease from the control value, in per cent – at 1 µM on hERG (KCNH2) [5] turned out to be 37%; at CYP2C19, 2%; against CYP3A4, 0%; against CYP2D6, 41%. The CC50 in data set [1] and in [3] was over 10 µM throughout. Also, the inhibition at 10 µM at hERG (KCNH2) [6] was 79%. Further, the IC50 in data set [4] was 23 nM.
For the compound `NCCCCN(C[C@@H]1CNCCN1)[C@H]1CCCc2cccnc21`, the CC50 in data set [1] and in data set [3] was over 10 µM each time. In addition, the IC50 in data set [2] worked out at 1100 nM; in data set [4], 1200 nM.
Regarding `NCCCCN(C[C@@H]1CN(C(=O)c2ccco2)CCN1)[C@H]1CCCc2cccnc21`, the CC50 in [1] and in data set [3] was over 10 µM each time. Moreover, the half-inhibitory concentration (IC50) in [2] is 150 nM; in data set [4], 35 nM.
As for `NCCCCN(Cc1nc2ccccc2[nH]1)[C@H]1CCCc2cccnc21` [MAVORIXAFOR], the inhibition at 1 µM amounted to 20% against CYP2C19 and 100% on CYP2D6.
Take `NCCCCN(CC1CN(c2ccccc2)CCN1)[C@H]1CCCc2cccnc21` (mixture of isomers): the CC50 in data set [1] and in data set [3] was over 10 µM each time. The half-inhibitory concentration (IC50) in data set [2] worked out at 720 nM; in [4] it was 130 nM.
For the compound `NCCCCN(C[C@@H]1CN(C(=O)OCc2ccccc2)CCN1)[C@H]1CCCc2cccnc21`, the CC50 in data set [1] and in data set [3] was over 10 µM throughout. Besides, in data set [2], the half-maximal inhibitory concentration (IC50) was 1350 nM.
`NCCCCN(C[C@@H]1CN(Cc2ccccc2)CCN1)[C@H]1CCCc2cccnc21`: the CC50 in [1] and in data set [3] was over 10 µM each time. The half-maximal inhibitory concentration (IC50) in [7] amounted to 2920 nM; in data set [4], 190 nM.
On to `NCCCCN(C[C@H]1CN(C(=O)Nc2ccccc2)CCN1)[C@H]1CCCc2cccnc21`, for which the CC50 in data set [1] and in data set [3] was over 10 µM each time. Further, the half-maximal inhibitory concentration (IC50) in data set [2] was found to be 350 nM.
On to `NCCCCN(C[C@H]1CN(S(=O)(=O)c2ccc(Cl)cc2)CCN1)[C@H]1CCCc2cccnc21`, for which the CC50 in data set [1] and in data set [3] was over 10 µM each time. For the same compound, the values for the IC50 in data set [2] and in [4] were 50 nM and 2 nM, respectively.
Turning to `NCCCCN(C[C@H]1CN(Cc2ccccc2)CCN1)[C@H]1CCCc2cccnc21`, the CC50 in [1] and in [3] was over 10 µM in each case. For the same compound, the half-inhibitory concentration (IC50) in data set [4] was 230 nM.
Take `NCCCCN(C[C@H]1CN(S(=O)(=O)c2ccccc2)CCN1)[C@H]1CCCc2cccnc21`: the CC50 in data set [1] and in [3] was over 10 µM each time. In addition, the half-inhibitory concentration (IC50) in [4] came to 2 nM.
`NCCCCN(C[C@H]1CN(S(=O)(=O)c2cc3ccccc3s2)CCN1)[C@H]1CCCc2cccnc21`: the CC50 in data set [1] and in data set [3] was over 10 µM each time. Besides, the half-maximal inhibitory concentration (IC50) amounted to 3440 nM in data set [2] and 39 nM in data set [4].
As to `NCCCCN(C[C@H]1CN(C(=O)c2ccccc2)CCN1)[C@H]1CCCc2cccnc21`, the CC50 in [1] and in data set [3] was over 10 µM throughout. The half-inhibitory concentration (IC50) is 60 nM in data set [2] and 2 nM in data set [4].
Regarding `NCCCCN(C[C@@H]1CN(C(=O)c2ccccc2)CCN1)[C@H]1CCCc2cccnc21`, the inhibition at 1 µM on hERG (KCNH2) [5] stood at 18%; at CYP2C19 it was 2%; against CYP3A4, 0%; against CYP2D6, 19%. Besides, the half-maximal inhibitory concentration (IC50) in data set [8] amounted to 88 nM; in data set [2], 20 nM; in data set [4], 6 nM. In addition, the CC50 in [1] and in [3] was over 10 µM throughout. Besides, the “Ratio IC50” value in data set [9] was 0.3. The compound also gave an inhibition at 10 µM at hERG (KCNH2) [6] of 55%.
On to `NCCCCN(C[C@H]1CN(C(=O)OCc2ccccc2)CCN1)[C@H]1CCCc2cccnc21`, for which the CC50 in [1] and in data set [3] was over 10 µM throughout. The IC50 worked out at 340 nM in data set [2] and 18 nM in [4].

The values above are taken from ChEMBL document CHEMBL3627700, “Discovery of novel N-aryl piperazine CXCR4 antagonists” (Bioorg Med Chem Lett, 2015).
